# From article PMC3128011, “Central nervous system exposure of next generation quinoline methanols is reduced relative to mefloquine after intravenous dosing in mice” (Malaria Journal, 2011)
# Like-named read-outs stand apart in the source and are kept apart here.
# Key:
# [1] = tested on: P. falciparum strain W2; assay: Plasmodium falciparum susceptibility assay (labeled hypoxanthine); assay type: cell-based; conditions: for Potency against P. falciparum in words: in vitro; for IC90: Plasmodium falciparum
# Protocol: The in vitro activities of quinoline methanols against P. falciparum strains W2, D6, TM91C235, and TM90C2A were evaluated using the traditional labeled hypoxanthine assay of Desjardins et al as modified by Milhous et al. These four P. falciparum strains were selected since they have various levels of resistance to conventional anti-malarials. W2 is chloroquine resistant and mefloquine sensitive, D6 is chloroquine sensitive but naturally less susceptible to mefloquine, TM91C235 is resistant to mefloquine, chloroquine, and pyrimethamine as is TM90C2A, however this latter parasite is a two pfmdr1 copy strain (pfmdr1 amplification has been associated with clinical mefloquine resistance). Mefloquine is routinely screened in these assays to ensure the validity. Historical values for mefloquine against all the strains are reported elsewhere. The focus of this study was the mefloquine-sensitive strain W2, however values for the other strains for all the compounds are reported in the Supplementary Information.
# [2] = Brain and plasma concentrations after IV dosing in mice (LCMS/MS); free brain level from equilibrium dialysis fu; assay type: in vivo; conditions: male FVB mice, IV 5 mg/kg; for Maximum whole brain concentration: sampled 5 min, 1, 6, 24 h; for Maximum free brain concentration: whole brain concentration x fu from brain homogenate equilibrium dialysis; for remaining at 24 h: mouse, plasma, 24 h relative to the 5 minute time point, read-out: Residual plasma concentration at 24 h (24h % Remaining)
# Protocol: All in vivo studies were conducted in accordance with protocols approved by the Victorian College of Pharmacy, Animal Ethics Committee. Male, six week old FVB mice were obtained from the Animals Resources Center (Perth, Western Australia) and provided with food and water ad libitum. Mice were administered a 50 μL bolus injection of mefloquine, its enantiomers or one of twenty five quinoline methanol compounds by tail vein injection (dosing solution concentration 2.8 mg/ml) for a nominal dose of 5 mg/kg. The compounds were prepared in 5% DMSO in 5% glucose solution buffered to a pH of 3-5 using citrate or acetate as appropriate based on an assessment of the lipophilicity and pKa of the compound. At 5 min, 1 h, 6 h or 24 h post-dosing, mice were anaesthetized with inhaled isoflurane (3%) approximately 3-4 minutes prior to blood and brain harvest. Blood was collected by cardiac puncture from groups of 2-3 mice and the whole brain was removed. The whole brains were placed into preweighed polypropylene vials and snap frozen prior to storage along with the plasma samples at -20°C until analysis. On the day of analysis, the whole brain was homogenized in three parts of aqueous solution containing 0.1 M EDTA and 0.4 g/L KF (inhibitors of hydrolytic enzymes to reduce the potential for ex vivo tissue-mediated degradation of the test compounds). Calibration standards were prepared by spiking blank brain homogenate and blank plasma with the test compound. Both samples and standards were processed by adding acetonitrile (to precipitate proteins) and centrifuged to separate the supernatant for analysis. An aliquot of the supernatant from each brain homogenate and plasma samples were analysed by UPLC/MS/MS on either a Quattro Premier XE, a Quattro Ultima Pt or a Xevo XT Mass Spectrometer (Waters Corporation, USA).
# The unbound fraction of each analog in mouse brain homogenate was determined in vitro using equilibrium dialysis according to methodology reported previously. In brief, a 96 well equilibrium dialysis apparatus was used to determine the unbound fraction in brain homogenate for each compound (HT Dialysis LLC, Gales Ferry, CT). Membranes (12-14 kDA cut-off) were conditioned in deionized water for 60 minutes, followed by conditioning in 80:20 deionized water:ethanol for 20 minutes, and then rinsed in artificial cerebrospinal fluid (CSF) before use. Mouse brain was removed from the freezer and allowed to thaw on the day of experiment. Thawed brain tissue was then homogenized with artificial CSF to a final composition of 1:2 brain:artificial CSF using a Covaris S2 (K Biosciences, Hoddesdon, UK). Diluted brain homogenate was then spiked with the test compound (10 ug/g), and 150 μL aliquots (n = 6 replicate determinations) loaded into the 96-well equilibrium dialysis plate. Dialysis vs artificial CSF (150 μL) was carried out for 5 hours in a temperature controlled incubator at ca. 37°C (Barworld Scientific Ltd, UK) using an orbital microplate shaker at 125 revolutions/minute (Barworld scientific Ltd, UK). At the end of the incubation period, aliquots of brain homogenate or artificial CSF were transferred to micronic tubes (Micronic B.V., the Netherlands) and the composition in each tube balanced with control fluid, such that the volume of artificial CSF to brain was the same. Sample extraction was performed by the addition of 400 μL of acetonitrile containing an appropriate internal standard. Samples were allowed to mix for 1 minute and then centrifuged at 3000 rpm in 96-well blocks for 15 minutes (Allegra X12-R, Beckman Coulter, USA). All samples were then analysed by UPLC/MS/MS on a Quattro Premier XE Mass Spectrometer (Waters Corporation, USA). The unbound fraction in brain was determined as the ratio of the peak area in artificial CSF to that in brain, with correction for dilution factor according to eq.1 [14].(1) [drawing 1] […]
# [3] = Half-life after oral dosing (data not shown); assay type: in vivo
Compound,Potency against P. falciparum in words [1],"Brain concentrations (free and whole) relative to mefloquine, in words [2]",Maximum whole brain concentration [2] [ng/g],Maximum free brain concentration [2] [ng/g],remaining at 24 h [2] [%],other results
CC(C)NCC(O)c1cc(C(F)(F)F)nc2c(C(F)(F)F)cccc12 (centres unmarked) [WR308257],most active,much higher,–,–,–,–
"O[C@H](c1cc(C(F)(F)F)nc2c(C(F)(F)F)cccc12)[C@@H]1CCCCN1 (single isomer, unassigned) [(+) mefloquine enantiomer, reference compound]",–,–,1159,2.5,–,–
OC(CNCCNCc1ccccc1)c1cc(C(F)(F)F)nc2c(C(F)(F)F)cccc12 (centres unmarked) [WR308396],acceptable potency,–,1768,3.5,4.6,"IC90 ([1]; W2, read-out: IC90 W2): 0.006 µg/mL"
"OC(c1cc(C(F)(F)F)nc2c(C(F)(F)F)cccc12)C1CCCCN1 (single isomer, unassigned; (-)) [(-) mefloquine enantiomer, reference compound]",–,–,–,–,–,Maximum whole brain concentration ([2]; 5 mg/kg): 2249 ng/g; Maximum free brain concentration ([2]; 5 mg/kg): 5.2 ng/g
CSCCCNCC(O)c1cc(C(F)(F)F)nc2c(C(F)(F)F)cccc12 (centres unmarked) [WR308278],most active,much higher,–,–,–,–
CCC(C)CNCC(O)c1cc(C(F)(F)F)nc2c(C(F)(F)F)cccc12 (centres unmarked) [WR308387],most active,much higher,–,–,–,–
CN(C)CC(O)c1cc(C(F)(F)F)nc2c(C(F)(F)F)cccc12 (centres unmarked) [WR308246],most active,much higher,–,–,–,–
OC(CNCC12CCC(C1)NC2)c1cc(C(F)(F)F)nc2c(C(F)(F)F)cccc12 (centres unmarked) [WR319535],modest potency,acceptable,145,0.45,2.7,Half-life relative to mefloquine [3]: longer than mefloquine
CCCCNCC(O)c1cc(C(F)(F)F)nc2c(C(F)(F)F)cccc12 (centres unmarked) [WR177000],most active,much higher,–,–,–,–
"OC(c1cc(C(F)(F)F)nc2c(C(F)(F)F)cccc12)C1CCCCN1 (centres unmarked) [Mefloquine, mefloquine]",–,–,–,–,35,"IC90 ([1]; mefloquine-sensitive W2 strain of P. falciparum, read-out: IC90 W2): 0.01 µg/mL; Maximum whole brain concentration ([2]; listed as MQ, 5 mg/kg): 1807 ng/g; Maximum free brain concentration ([2]; listed as MQ, 5 mg/kg): 4.9 ng/g"
CCCCNCCNCC(O)c1cc(C(F)(F)F)nc2c(C(F)(F)F)cccc12 (centres unmarked) [WR318746],–,–,431,3.8,2.4,"IC90 ([1]; W2, read-out: IC90 W2): 0.069 µg/mL"
COCCNCC(O)c1cc(C(F)(F)F)nc2c(C(F)(F)F)cccc12 (centres unmarked) [WR308412],most active,much higher,–,–,–,–
OC(CNC1CCCNC1)c1cc(C(F)(F)F)nc2c(C(F)(F)F)cccc12 (centres unmarked) [WR318744],–,–,593,3.5,17,"IC90 ([1]; W2, read-out: IC90 W2): > 0.5 µg/mL"
OC(CNC1CCNC1)c1cc(C(F)(F)F)nc2c(C(F)(F)F)cccc12 (centres unmarked) [WR308781],–,–,689,5.6,3.3,"IC90 ([1]; W2, read-out: IC90 W2): > 0.5 µg/mL"
CNCC(O)c1cc(C(F)(F)F)nc2c(C(F)(F)F)cccc12 (centres unmarked) [WR308245],most active,much higher,–,–,–,–
OC(CN1CCCCC1)c1cc(C(F)(F)F)nc2c(C(F)(F)F)cccc12 (centres unmarked) [WR308265],most active,much higher,–,–,–,–
